Source: patent publication US10246712B2, “Genetic or pharmacological reduction of PERK enhances cortical- and hippocampus-dependent cognitive function” (Carmel-Haifa University Economic Corp. Ltd, priority 2015, dated 2019)

Tested on: pyramidal CA1 neurons
Test: Whole cell patch clamp recording of intrinsic neuronal properties
Format: cell-based, mouse
Details: vs vehicle
Procedure: Mice were sacrificed by cervical dislocation and three hundred micrometer coronal brain slices were cut with a Campden-1000 Vibrotome. Slices were cut in ice-cold cutting solution containing (in mM) 110 sucrose, 60 NaCl, 3 KCl, 1.25 NaH2PO4, 28 NaHCO3, 0.5 CaCl2, 7 MgCl2, 5 glucose, and 0.6 ascorbate and recovered for 30 min at 37° C. in artificial cerebrospinal fluid (ACSF) containing (in mM) 125 NaCl, 2.5 KCl, 1.25 NaH2PO4, 25 NaHCO3, 25 D-glucose, 2 CaCl2, and 1 MgCl2, followed by additional recovery for 30 min in room-temperature ACSF. After initial recovery, slices were placed in a submerged chamber and maintained at 34° C. in ACSF (2 ml/min). All solutions were constantly carboxygenated with 95% O2+5% CO2.
Cells infected with PERK-shRNA- or scrambled sequence PERK shRNA (PERK-Scr)-containing AAV were identified by green fluorescence. Recordings were amplified by multiclamp 700B and digitized by Digidata 1440 (Molecular Devices). The recording electrode was pulled from a borosilicate glass pipette (3-5 MΩ) using an electrode puller (P-1000; Sutter Instruments) and filled with a K-gluconate-based internal solution containing (in mM) 120 K-gluconate, 20 KCl, 10 HEPES, 2 MgCl2, 4 Na2ATP, 0.5 TrisGTP, 14 phosphocreatine, osmolarity 290 mOsm, and pH 7.3. The recording glass pipettes were patched onto the soma region of pyramidal cells. Voltages for liquid junction potential (+10 mV) were not corrected online. All current-clamp recordings were low-pass filtered at 10 kHz and sampled at 50 kHz. Series resistance was compensated and only series resistance <20 MΩ was included in the data set. Pipette capacitance was ˜99% compensated. The method for measuring active intrinsic properties was based on a modified version of Kaphzan H et al., 2013. For recordings with GSK2606414, 100 nM inhibitor was applied in the pipette solution, and recordings were performed as described above.
Resting membrane potential (RMP) was measured 5 min after the seal was ruptured. The I-V (current-voltage) relationship used to calculate number of action potentials obtained by injection of 1 s pulses (−150 to +300 pA in 50 pA increments).
Input resistance (Rin) was calculated from the voltage response to a hyperpolarizing current pulse (−150 pA). For measurements of a single AP, after initial assessment of the current, which was required to induce an action potential at 15 ms from the start of the current injection with large steps (50 pA), we injected a series of brief depolarizing currents for 10 ms in steps of 10 pA increments. The first action potential that appeared on the 5 ms time point was analyzed. A curve of dV/dt was created for that trace, and the 30 V/s point in the rising slope of the action potential was considered as threshold (Kaphzan et al., 2013).
AP amplitude was measured from the equipotential point of the threshold to the spike peak, while AP duration was measured at the point of half-amplitude of the spike. The mAHP (medium after-hyperpolarization) was measured using prolonged (3 s), high-amplitude (3 nA) somatic current injections to initiate time-locked action potential trains of 50 Hz frequency and duration (10-50 Hz, 1 or 3 s) in pyramidal cells. These action potential trains generated prolonged (˜20 s) AHPs, the amplitudes and integrals of which increased with the number of action potentials in the spike train. AHP was measured from the equipotential point of the threshold to the anti-peak of the same spike (Gulledge et al., 2013).
Series resistance, input resistance, and membrane capacitance were monitored during the entire experiment. Changes in these parameters (which were monitored throughout the entire duration of the experiment) greater than 10% were criteria for exclusion of data. AU experimental analyses were performed in a blind manner; the identity of the mouse from which neurons were recorded (PERK shRNA or scrambled) was not known to the person conducting the experiments and measurements.

## Cn1cc(-c2ccc3c(c2)CCN3C(=O)Cc2cccc(C(F)(F)F)c2)c2c(N)ncnc21 [GSK2606414, 7-methyl-5-(1-{[3-(trifluoromethyl)phenyl]acetyl}-2,3-dihydro-1H-indol-5-yl)-7H-pyrrolo[2,3-d]pyrimidin-4-amine]
100 nM in pipette solution, acute hippocampal slices, increased current steps
  action potential (AP) frequency: increased
100 nM in pipette solution
  AP amplitude: longer
  AP mid width: wider
  AP threshold: hyperpolarized
  input resistance: Neither resting membrane potential (RMP) nor input resistance was changed
  resting membrane potential (RMP): Neither resting membrane potential (RMP) nor input resistance was changed
100 nM, acute hippocampal slices
  mAHP: significantly reduced
